In the supplement of paper PMC9663587:

Columns and labels:
Neratinib/HKI272 = compound: CCOc1cc2ncc(C#N)c(Nc3ccc(OCc4ccccn4)c(Cl)c3)c2cc1NC(=O)/C=C/CN(C)C [Neratinib/HKI272]; assay: GR value, 72 h; higher = faster growth (1 = untreated, <0 = killing);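 note: breast cancer and non-malignant breast epithelial lines, nine half-log doses, viable cells counted by Hoechst and LIVE/DEAD dye imaging versus time-zero plates and DMSO controls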
[1] = compound: CC(=O)c1c(C)c2cnc(Nc3ccc(N4CCNCC4)cn3)nc2n(C2CCCC2)c1=O; assay: as above
[2] = compound: CCc1cnn2c(NCc3ccc[n+]([O-])c3)cc(N3CCCC[C@H]3CCO)nc12; assay: as above
[3] = compound: CCN1CCN(Cc2ccc(Nc3ncc(F)c(-c4cc(F)c5nc(C)n(C(C)C)c5c4)n3)nc2)CC1; assay: as above
[4] = compound: CCN1CCN(Cc2ccc(Nc3ncc(F)c(-c4cc(F)c5nc(C)n(C(C)C)c5c4)n3)nc2)CC1; assay: increase in dead-cell fraction, 72 h; higher = more death;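 note: breast cancer cell lines in 384-well plates, stained with Hoechst plus LIVE/DEAD far red dye and imaged, cells above an LDR intensity threshold counted dead, Hoechst-negative corpses included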
BSJ-03-123 = compound: CC(=O)c1c(C)c2cnc(Nc3ccc(N4CCN(CCOCCOCCOCCNC(=O)COc5cccc6c5C(=O)N(C5CCC(=O)NC5=O)C6=O)CC4)cn3)nc2n(C2CCCC2)c1=O [BSJ-03-123]; assay: GR value, 72 h; higher = faster growth (1 = untreated, <0 = killing);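 note: breast cancer and non-malignant breast epithelial lines, nine half-log doses, viable cells counted by Hoechst and LIVE/DEAD dye imaging versus time-zero plates and DMSO controls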
Flavopiridol [5] = compound: T1, CN1CC[C@H](c2c(O)cc(O)c3c(=O)cc(-c4ccccc4Cl)oc23)[C@H](O)C1 [Flavopiridol]; assay: as above
THZ1 = compound: CN(C)C/C=C/C(=O)Nc1ccc(C(=O)Nc2cccc(Nc3ncc(Cl)c(-c4c[nH]c5ccccc45)n3)c2)cc1 [THZ1]; assay: as above
LEE011/Ribociclib = compound: CN(C)C(=O)c1cc2cnc(Nc3ccc(N4CCNCC4)cn3)nc2n1C1CCCC1 [LEE011/Ribociclib]; assay: as above
YKL-5-124 = compound: C=CC(=O)Nc1ccc(C(=O)Nc2[nH]nc3c2CN(C(=O)N[C@H](CN(C)C)c2ccccc2)C3(C)C)cc1 [YKL-5-124]; assay: as above
THZ531 = compound: CN(C)C/C=C/C(=O)Nc1ccc(C(=O)N2CCC[C@@H](Nc3ncc(Cl)c(-c4c[nH]c5ccccc45)n3)C2)cc1 [THZ531]; assay: as above
Flavopiridol [6] = compound: T1, Flavopiridol; assay: increase in dead-cell fraction, 72 h; higher = more death;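 note: breast cancer cell lines in 384-well plates, stained with Hoechst plus LIVE/DEAD far red dye and imaged, cells above an LDR intensity threshold counted dead, Hoechst-negative corpses included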

Cell Line: MDAMB157
- GR value (Neratinib/HKI272; 0.0003162 µM): 1.03 GR
- GR value (Neratinib/HKI272; 0.001 µM): 0.981 GR
- GR value (Neratinib/HKI272; 0.003162 µM): 1.04 GR
- GR value (Neratinib/HKI272; 0.01 µM): 1 GR
- GR value (Neratinib/HKI272; 0.03162 µM): 0.921 GR
- GR value (Neratinib/HKI272; 0.1 µM): 0.842 GR
- GR value (Neratinib/HKI272; 0.3162 µM): 0.708 GR
- GR value (Neratinib/HKI272; 1 µM): 0.445 GR
- GR value (Neratinib/HKI272; 3.162 µM): 0.151 GR
- GR value ([1]; 0.0003162 µM): 0.945 GR
- GR value ([1]; 0.001 µM): 0.976 GR
- GR value ([1]; 0.003162 µM): 0.969 GR
- GR value ([1]; 0.01 µM): 1.08 GR
- GR value ([1]; 0.03162 µM): 1.02 GR
- GR value ([1]; 0.1 µM): 1.02 GR
- GR value ([1]; 0.3162 µM): 0.965 GR
- GR value ([1]; 1 µM): 1.05 GR
- GR value ([1]; 3.162 µM): 0.991 GR
- GR value ([2]; 0.0001 µM): 1.07 GR
- GR value ([2]; 0.0003162 µM): 1.05 GR
- GR value ([2]; 0.001 µM): 1.06 GR
- GR value ([2]; 0.003162 µM): 0.982 GR
- GR value ([2]; 0.01 µM): 0.929 GR
- GR value ([2]; 0.03162 µM): -0.488 GR
- GR value ([2]; 0.1 µM): -0.86 GR
- GR value ([2]; 0.3162 µM): -0.899 GR
- GR value ([2]; 1 µM): -0.915 GR
- GR value ([3]; 0.001 µM): 1.01 GR
- GR value ([3]; 0.003162 µM): 1.08 GR
- GR value ([3]; 0.01 µM): 0.993 GR
- GR value ([3]; 0.03162 µM): 0.928 GR
- GR value ([3]; 0.1 µM): 0.913 GR
- GR value ([3]; 0.3162 µM): 0.727 GR
- GR value ([3]; 1 µM): 0.578 GR
- GR value ([3]; 3.162 µM): 0.441 GR
- GR value ([3]; 10 µM): -0.587 GR
- increase in dead-cell fraction ([4]; 0.001 µM): -0.0027
- increase in dead-cell fraction ([4]; 0.003162 µM): -0.0032
- increase in dead-cell fraction ([4]; 0.01 µM): -0.0032
- increase in dead-cell fraction ([4]; 0.03162 µM): 0.0011
- increase in dead-cell fraction ([4]; 0.1 µM): 0.0051
- increase in dead-cell fraction ([4]; 0.3162 µM): 0.0141
- increase in dead-cell fraction ([4]; 1 µM): 0.0387
- increase in dead-cell fraction ([4]; 3.162 µM): 0.0737
- increase in dead-cell fraction ([4]; 10 µM): 0.48

Cell Line: PDX1206
- GR value (BSJ-03-123; 0.001 µM): 1.02 GR
- GR value (BSJ-03-123; 0.003162 µM): 0.915 GR
- GR value (BSJ-03-123; 0.01 µM): 0.885 GR
- GR value (BSJ-03-123; 0.03162 µM): 0.967 GR
- GR value (BSJ-03-123; 0.1 µM): 0.904 GR
- GR value (BSJ-03-123; 0.3162 µM): 0.912 GR
- GR value (BSJ-03-123; 1 µM): 0.782 GR
- GR value (BSJ-03-123; 3.162 µM): 0.726 GR
- GR value (BSJ-03-123; 10 µM): -0.109 GR
- GR value (Flavopiridol [5]; 0.0001 µM): 1.09 GR
- GR value (Flavopiridol [5]; 0.0003162 µM): 0.867 GR
- GR value (Flavopiridol [5]; 0.001 µM): 0.803 GR
- GR value (Flavopiridol [5]; 0.003162 µM): 0.812 GR
- GR value (Flavopiridol [5]; 0.01 µM): 1.03 GR
- GR value (Flavopiridol [5]; 0.03162 µM): 0.485 GR
- GR value (Flavopiridol [5]; 0.1 µM): 0.393 GR
- GR value (Flavopiridol [5]; 0.3162 µM): -0.402 GR
- GR value (Flavopiridol [5]; 1 µM): -0.571 GR
- GR value (THZ1; 0.0001 µM): 1.05 GR
- GR value (THZ1; 0.0003162 µM): 1.03 GR
- GR value (THZ1; 0.001 µM): 0.987 GR
- GR value (THZ1; 0.003162 µM): 0.977 GR
- GR value (THZ1; 0.01 µM): 0.933 GR
- GR value (THZ1; 0.03162 µM): 0.351 GR
- GR value (THZ1; 0.1 µM): -0.278 GR
- GR value (THZ1; 0.3162 µM): -0.408 GR
- GR value (THZ1; 1 µM): -0.536 GR
- GR value (LEE011/Ribociclib; 0.001 µM): 0.899 GR
- GR value (LEE011/Ribociclib; 0.003162 µM): 0.915 GR
- GR value (LEE011/Ribociclib; 0.01 µM): 0.885 GR
- GR value (LEE011/Ribociclib; 0.03162 µM): 0.915 GR
- GR value (LEE011/Ribociclib; 0.1 µM): 0.758 GR
- GR value (LEE011/Ribociclib; 0.3162 µM): 0.817 GR
- GR value (LEE011/Ribociclib; 1 µM): 0.998 GR
- GR value (LEE011/Ribociclib; 3.162 µM): 0.753 GR
- GR value (LEE011/Ribociclib; 10 µM): 0.685 GR
- GR value (YKL-5-124; 0.001 µM): 0.821 GR
- GR value (YKL-5-124; 0.003162 µM): 0.683 GR
- GR value (YKL-5-124; 0.01 µM): 0.588 GR
- GR value (YKL-5-124; 0.03162 µM): 0.519 GR
- GR value (YKL-5-124; 0.1 µM): 0.461 GR
- GR value (YKL-5-124; 0.3162 µM): 0.444 GR
- GR value (YKL-5-124; 1 µM): 0.323 GR
- GR value (YKL-5-124; 3.162 µM): 0.205 GR
- GR value (YKL-5-124; 10 µM): -0.502 GR
- GR value (THZ531; 0.0001 µM): 1.14 GR
- GR value (THZ531; 0.0003162 µM): 0.992 GR
- GR value (THZ531; 0.001 µM): 1.01 GR
- GR value (THZ531; 0.003162 µM): 1.05 GR
- GR value (THZ531; 0.01 µM): 1.02 GR
- GR value (THZ531; 0.03162 µM): 0.9 GR
- GR value (THZ531; 0.1 µM): -0.371 GR
- GR value (THZ531; 0.3162 µM): -0.273 GR
- GR value (THZ531; 1 µM): -0.29 GR
- increase in dead-cell fraction (Flavopiridol [6]; 0.0001 µM): 0.009
- increase in dead-cell fraction (Flavopiridol [6]; 0.0003162 µM): 0.0115
- increase in dead-cell fraction (Flavopiridol [6]; 0.001 µM): 0.0015
- increase in dead-cell fraction (Flavopiridol [6]; 0.003162 µM): 0.0091
- increase in dead-cell fraction (Flavopiridol [6]; 0.01 µM): -0.0105
- increase in dead-cell fraction (Flavopiridol [6]; 0.03162 µM): 0.0053
- increase in dead-cell fraction (Flavopiridol [6]; 0.1 µM): 0.0408
- increase in dead-cell fraction (Flavopiridol [6]; 0.3162 µM): 0.405
- increase in dead-cell fraction (Flavopiridol [6]; 1 µM): 0.587
